# Test results taken from BindingDB's records for doi:10.3109/14756366.2012.656622 (Shandong University, 2013).
# Where a name gives a salt, the structure may show the parent alone.
# Key:
# [1] = target: 72 kDa type IV collagenase (Pig, UniProt Q95JA4); assay: MMP-2 Inhibition Assay
# Procedure: Gelatinase A (MMP-2) and TNBS were purchased from Sigma, and the substance was synthesized as described by Vijaykumar et al. The gelatinase, substance, and inhibitor were dissolved in sodium borate (pH8.5, 50 mmol/L) and incubated for 30 min at 37 °C, and then 0.03 % TNBS was added and incubated for another 20 min, the resulting solution was detected under 450 nm wavelength to gain absorption.
# Aminopeptidase N = target: T1, Aminopeptidase N (Sus scrofa, UniProt P15145); assay: APN Inhibition Assay; conditions: pH 7.5; 25 °C
# T1 sequence (P15145 whole entry): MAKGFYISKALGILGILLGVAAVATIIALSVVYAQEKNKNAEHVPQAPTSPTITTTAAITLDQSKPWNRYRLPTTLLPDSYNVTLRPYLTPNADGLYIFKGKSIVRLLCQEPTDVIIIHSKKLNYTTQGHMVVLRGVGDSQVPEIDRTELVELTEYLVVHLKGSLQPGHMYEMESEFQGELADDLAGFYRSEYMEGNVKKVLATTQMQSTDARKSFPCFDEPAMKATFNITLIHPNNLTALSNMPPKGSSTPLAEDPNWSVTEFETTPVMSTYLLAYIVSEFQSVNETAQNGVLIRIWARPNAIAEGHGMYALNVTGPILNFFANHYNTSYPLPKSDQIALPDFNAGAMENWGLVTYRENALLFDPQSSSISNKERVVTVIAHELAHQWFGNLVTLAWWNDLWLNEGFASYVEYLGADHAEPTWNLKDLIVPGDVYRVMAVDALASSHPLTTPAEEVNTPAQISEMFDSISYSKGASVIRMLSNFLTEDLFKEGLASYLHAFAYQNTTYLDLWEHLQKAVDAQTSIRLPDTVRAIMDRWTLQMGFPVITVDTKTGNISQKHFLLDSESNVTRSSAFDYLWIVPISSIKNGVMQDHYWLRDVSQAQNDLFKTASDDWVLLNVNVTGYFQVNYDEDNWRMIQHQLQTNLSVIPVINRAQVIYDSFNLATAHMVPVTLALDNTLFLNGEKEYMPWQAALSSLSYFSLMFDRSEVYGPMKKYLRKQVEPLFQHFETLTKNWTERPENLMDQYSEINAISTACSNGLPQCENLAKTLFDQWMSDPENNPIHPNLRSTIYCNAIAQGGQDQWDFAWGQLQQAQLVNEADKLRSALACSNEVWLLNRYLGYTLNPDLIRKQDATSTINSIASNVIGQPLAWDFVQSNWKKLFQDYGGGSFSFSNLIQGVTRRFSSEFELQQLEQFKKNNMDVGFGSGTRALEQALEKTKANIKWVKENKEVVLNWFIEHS
# Procedure: IC50 values against APN from Porcine Kidney were determined by using L-Leu-p-nitroanilide as a substrate. All the solutions of the inhibitors were prepared in the assay buffer( pH 7.5). All the inhibitors were preincubated with APN for 5 min at room temperature. The assay mixture, which contained the inhibitor solution (concentration dependent on the inhibitor), the enzyme solution (4 mg/mL final concentration), and the assay buffer, was adjusted to 200 μL, and then incubated at 37 ℃ for 30 min.
# 72 kDa type IV collagenase, sequence (Q95JA4 whole entry): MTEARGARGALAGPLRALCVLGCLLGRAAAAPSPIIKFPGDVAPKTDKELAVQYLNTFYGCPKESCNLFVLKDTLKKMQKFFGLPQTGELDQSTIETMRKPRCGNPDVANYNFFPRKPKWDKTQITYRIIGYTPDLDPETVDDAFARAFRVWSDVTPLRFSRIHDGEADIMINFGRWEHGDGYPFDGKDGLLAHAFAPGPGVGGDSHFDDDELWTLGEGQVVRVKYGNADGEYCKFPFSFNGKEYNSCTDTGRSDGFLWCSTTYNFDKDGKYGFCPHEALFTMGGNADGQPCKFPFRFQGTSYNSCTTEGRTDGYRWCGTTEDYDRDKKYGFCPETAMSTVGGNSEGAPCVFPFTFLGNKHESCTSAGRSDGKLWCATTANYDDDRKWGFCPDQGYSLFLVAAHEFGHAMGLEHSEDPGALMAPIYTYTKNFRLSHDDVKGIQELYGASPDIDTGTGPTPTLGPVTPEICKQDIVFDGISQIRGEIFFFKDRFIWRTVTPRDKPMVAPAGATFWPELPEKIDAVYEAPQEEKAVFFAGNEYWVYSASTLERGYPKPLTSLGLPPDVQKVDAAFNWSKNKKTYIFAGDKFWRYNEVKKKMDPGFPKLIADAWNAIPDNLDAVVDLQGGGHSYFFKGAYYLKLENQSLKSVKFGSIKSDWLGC
SMILES,IC50 [1] [µM],IC50 (Aminopeptidase N) [µM]
CC(C)C[C@H](NC(=O)[C@@H](O)[C@H](N)Cc1ccccc1)C(=O)O,163,
"N[C@@H](c1ccccc1)[C@@H](O)C(=O)N[C@@H](Cc1ccccc1)C(=O)NO [(2R,3S)-3-amino-2-hydroxy-N-((S)-1-(hydroxyamino)-1-oxo-3-phenylpropan-2-yl)-3-phenylpropanamide hydrochloride (7f)]",249,44
"N[C@@H](c1ccccc1)[C@@H](O)C(=O)N[C@@H](Cc1ccc(O)cc1)C(=O)NO [(2R,3S)-3-amino-2-hydroxy-N-((S)-1-(hydroxyamino)-3-(4-hydroxyphenyl)-1-oxopropan-2-yl)-3-phenylpropanamide hydrochloride (7g)]",299,173
"N[C@@H](c1ccccc1)[C@@H](O)C(=O)N[C@H](C(=O)NO)c1ccccc1 [(2R,3S)-3-amino-2-hydroxy-N-((S)-2-(hydroxyamino)-2-oxo-1-phenylethyl)-3-phenylpropanamide hydrochloride (7e)]",213,1.26
"CCC(C)[C@H](NC(=O)[C@H](O)[C@@H](N)c1ccccc1)C(=O)NO (stereo partly drawn) [(2S)-2-((2R,3S)-3-amino-2-hydroxy-3-phenylpropanamido)-N-hydroxy-3-methylpentanamide hydrochloride (7d)]",207,82.9
"N[C@@H](c1ccccc1)[C@@H](O)C(=O)N[C@H](C(=O)O)c1ccccc1 [(S)-2-((2R,3S)-3-amino-2-hydroxy-3-phenylpropanamido)-2-phenylacetic acid hydrochloride (5e)]",254,198
"N[C@@H](c1ccccc1)[C@@H](O)C(=O)N[C@@H](Cc1ccc(O)cc1)C(=O)O [(S)-2-((2R,3S)-3-amino-2-hydroxy-3-phenylpropanamido)-3-(4-hydroxyphenyl) propanoic acid hydrochloride (5g)]",407,
"N[C@@H](c1ccccc1)[C@@H](O)C(=O)N[C@@H](Cc1ccccc1)C(=O)O [(S)-2-((2R,3S)-3-amino-2-hydroxy-3-phenylpropanamido)-3-phenylpropanoic acid hydrochloride (5f)]",497,
"Cc1ccccc1NC(=O)[C@H](CC(C)C)NC(=O)[C@H](O)[C@@H](N)c1ccccc1 [(S)-2-((2R,3S)-3-amino-2-hydroxy-3-phenylpropanamido)-4-methyl-N-o-tolylpentanamide hydrochloride (9b)]",,363
"CC(C)C[C@H](NC(=O)[C@H](O)[C@@H](N)c1ccccc1)C(=O)NO [(S)-2-((2R,3S)-3-amino-2-hydroxy-3-phenylpropanamido)-N-hydroxy-4-methylpentanamide hydrochloride (7a)]",64.6,56.7
"CC(C)C[C@H](NC(=O)[C@H](Cc1ccccc1)NC(=O)[C@H](O)[C@@H](N)c1ccccc1)C(=O)O [(S)-2-((S)-2-((2R,3S)-3-amino-2-hydroxy-3-phenylpropanamido)-3-phenylpropanamido)-4-methylpentanoic acid hydrochloride (5n)]",,105
"CC(C)C[C@H](NC(=O)[C@H](O)[C@@H](N)c1ccccc1)C(=O)NC(C(=O)O)c1ccccc1 (stereo partly drawn) [(S)-2-((S)-2-((2R,3S)-3-amino-2-hydroxy-3-phenylpropanamido)-4-methylpentanamido)-2-phenylacetic acid hydrochloride (5k)]",186,
"CC(C)C[C@H](NC(=O)[C@H](O)[C@@H](N)c1ccccc1)C(=O)N[C@H](C(=O)O)C(C)C [(S)-2-((S)-2-((2R,3S)-3-amino-2-hydroxy-3-phenylpropanamido)-4-methylpentanamido)-3-methylbutanoic acid hydrochloride (5i)]",690,590
"CC(C)C[C@H](NC(=O)[C@H](CC(C)C)NC(=O)[C@H](O)[C@@H](N)c1ccccc1)C(=O)O [(S)-2-((S)-2-((2R,3S)-3-amino-2-hydroxy-3-phenylpropanamido)-4-methylpentanamido)-4-methylpentanoic acid hydrochloride (5j)]",424,513

# Next, values leading:
IC50 [1] [µM],IC50 (Aminopeptidase N) [µM],SMILES
292,,"C[C@H](NC(=O)[C@H](O)[C@@H](N)c1ccccc1)C(=O)NO [(2R,3S)-3-amino-2-hydroxy-N-((S)-1-(hydroxyamino)-1-oxopropan-2-yl)-3-phenylpropanamide hydrochloride (7c)]"
292,158,"N[C@@H](c1ccccc1)[C@@H](O)C(=O)N[C@@H](CO)C(=O)NO [(2R,3S)-3-amino-2-hydroxy-N-((S)-3-hydroxy-1-(hydroxyamino)-1-oxopropan-2-yl)-3-phenylpropanamide hydrochloride (7h)]"
264,,"CCC(C)[C@H](NC(=O)[C@H](O)[C@@H](N)c1ccccc1)C(=O)O (stereo partly drawn) [(2S)-2-((2R,3S)-3-amino-2-hydroxy-3-phenylpropanamido)-3-methylpentanoic acid hydrochloride (5d)]"
562,,"N[C@@H](c1ccccc1)[C@@H](O)C(=O)N[C@@H](CO)C(=O)O [(S)-2-((2R,3S)-3-amino-2-hydroxy-3-phenylpropanamido)-3-hydroxypropanoic acid hydrochloride (5h)]"
287,,"CC(C)[C@H](NC(=O)[C@H](O)[C@@H](N)c1ccccc1)C(=O)O [(S)-2-((2R,3S)-3-amino-2-hydroxy-3-phenylpropanamido)-3-methylbutanoic acid hydrochloride (5b)]"
215,352,"CC(C)C[C@H](NC(=O)[C@H](O)[C@@H](N)c1ccccc1)C(=O)O [(S)-2-((2R,3S)-3-amino-2-hydroxy-3-phenylpropanamido)-4-methylpentanoic acid hydrochloride (5a)]"
128,76.9,"CC(C)[C@H](NC(=O)[C@H](O)[C@@H](N)c1ccccc1)C(=O)NO [(S)-2-((2R,3S)-3-amino-2-hydroxy-3-phenylpropanamido)-N-hydroxy-3-methylbutanamide hydrochloride (7b)]"
273,342,"C[C@H](NC(=O)[C@H](O)[C@@H](N)c1ccccc1)C(=O)O [(S)-2-((2R,3S)-3-amino-2-hydroxy-3-phenylpropanamido)propanoic acid hydrochloride (5c)]"
